These results are taken from paper PMC4189262 (Pharmacognosy Magazine, 2014).

Data set [1] deals with rat pheochromocytoma PC12 cells. Conditions: limited supply of serum and hydrogen peroxide, ref Hong et al. [14]; cited from earlier work.
For the next data set, the system named is human CYP1A2. As to conditions: ref Shimada et al. [26]; cited from earlier work.
The subject of data set [2] is isolated rat hepatocytes. Put plainly: Trypan blue exclusion. Conditions: 60 μM, hepatocytes incubation, vs control.
Data set [3] deals with isolated rat hepatocytes. As to the kind of experiment: Malondialdehyde. The format is cell-based. Conditions: 60 μM, hepatocytes incubation, vs control.
The test system of data set [4] is isolated rat hepatocytes. As to the kind of experiment: Lactate dehydrogenase. The format is cell-based. Conditions: 60 μM, hepatocytes incubation, vs control.
Data set [5] deals with isolated rat hepatocytes. As to the kind of experiment: Glutathione. The format is cell-based. Conditions: 60 μM, hepatocytes incubation, vs control.

In the case of `O=c1c(O)c(-c2ccc(O)cc2)oc2cc(O)cc(O)c12` [kaempferol], the “protective effects on oxidative damage” value in data set [1] is listed as “protective effects”. In the data set with human CYP1A2, the “inhibitory activity on human CYP1A2” value was “inhibitory activity”.
Consider `O=c1c(-c2ccc(O)cc2)coc2cc(O)cc(O)c12` [genistein], for which, in the data set on human CYP1A2, the “inhibitory activity on human CYP1A2” value is given as “inhibitory activity”.
In the case of `COc1cc(O)c2c(=O)c(O)c(-c3ccc(O)cc3)oc2c1` [rhamnocitrin, kempferol 7-O-methyl ether], the “protective effects on oxidative damage” value in data set [1] is reported as “protective effects”.
Regarding `Cn1c(CCCC(=O)O)nc2cc(N(CCCl)CCCl)ccc21` [Bendamustine], the “reduction of cell viability” value with isolated rat hepatocytes [2] is 33%. In the data set on isolated rat hepatocytes [3], the “increased MDA level” value was 194%. For the same compound, the “increased LDH leakage” value in the data set with isolated rat hepatocytes [4] is 59%. Moreover, the “depletion of cell GSH” value in the data set with isolated rat hepatocytes [5] is reported as 76%.
`O=P1(N(CCCl)CCCl)NCCCO1` (stereo not drawn) [Cyclophosphamide]: in the data set with isolated rat hepatocytes [2], the “reduction of cell viability” value is on record as 43%. In the data set with isolated rat hepatocytes [3], the “increased MDA level” value is reported as 184%. The “increased LDH leakage” value in the data set with isolated rat hepatocytes [4] was 100%. Moreover, in the data set on isolated rat hepatocytes [5], the “depletion of cell GSH” value is on record as 72%.
For the compound `O=c1cc(-c2ccc(O)cc2)oc2cc(O)cc(O)c12` [apigenin], the “inhibitory activity on human CYP1A2” value in the data set with human CYP1A2 is reported as “inhibitory activity”.
Consider `O=c1cc(-c2ccccc2)oc2cc(O)cc(O)c12` [chrysin], for which the “inhibitory activity on human CYP1A2” value with human CYP1A2 is “inhibitory activity”.
On to `O=c1c(O)c(-c2ccccc2)oc2cc(O)cc(O)c12` [galangin], for which, in the data set with human CYP1A2, the “inhibitory activity on human CYP1A2” value was “inhibitory activity”.
